Reference: article PMC7492732, “Offloading Role of a Discrete Thioesterase in Type II Polyketide Biosynthesis” (mBio, 2020)

Target: T1, FscTE (Streptomyces sp. FR-008, UniProt Q6W5Q5)
T1 construct: His6 tag, pET28a, expressed in E. coli BL21(DE3)/pGro7
T1 sequence (Q6W5Q5 1-285): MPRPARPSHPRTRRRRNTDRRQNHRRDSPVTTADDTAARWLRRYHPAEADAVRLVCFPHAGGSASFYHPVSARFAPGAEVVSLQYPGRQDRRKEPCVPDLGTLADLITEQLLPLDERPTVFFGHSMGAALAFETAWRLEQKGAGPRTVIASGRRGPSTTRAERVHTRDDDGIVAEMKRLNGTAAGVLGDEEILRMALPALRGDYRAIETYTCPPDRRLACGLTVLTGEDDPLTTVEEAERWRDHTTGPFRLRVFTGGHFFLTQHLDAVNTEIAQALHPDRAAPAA
Test: DTNB spectrophotometric assay at […] nm
Assay type: biochemical

## CCCC(=O)SCCNC(C)=O [butyryl-SNAC]
  DTNB spectrophotometric assay at 412 nm: A similar phenomenon was observed when butyryl-SNAC was used as a substrate
